Measured values from ChEMBL document CHEMBL1201862, “PubChem BioAssay data set” (2004).
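Five concentrations, 48 hours, 96-well plates. GI50 is the concentration that inhibits growth by half.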 Activity calls are given as the source filed them. Cut-off read from the data, not from the text of the source: active = GI50 up to about 1.1 µM and inactive = higher.

What was measured:
Experiment in all cases: growth of human tumour cells (NCI), 48 h
[1] = tested on: IGROV-1
[2] = tested on: SF-268
[3] = tested on: SK-OV-3
[4] = tested on: OVCAR-8
[5] = tested on: NCI-H23
[6] = tested on: HOP-62
[7] = tested on: OVCAR-5
[8] = tested on: SK-MEL-5
[9] = tested on: HCT-116
[10] = tested on: SNB-75
[11] = tested on: U-251
[12] = tested on: RXF 393
[13] = tested on: CCRF-CEM
[14] = tested on: SF-539
[15] = tested on: LXFL 529
[16] = tested on: SW-620
[17] = tested on: SNB-19

Measured: GI50

O=C(NCCCCCCNC(=O)c1cccc2ccccc12)c1cccc2ccccc12
inactive: [1] 32.9 µM | [2] 10.3 µM | [3] 21.2 µM | [4] 18.7 µM | [5] 31.5 µM | [6] 20.5 µM | [7] > 100 µM | [8] > 100 µM | [9] 14.4 µM | [10] 3.29 µM | [11] 18.3 µM | [12] 8.51 µM | [13] > 100 µM | [14] 11.8 µM | [15] 57.1 µM | [16] > 100 µM

COc1ccc2c3c(n(Cc4ccccc4)c(=O)c2c1)-c1cc(OC)c(OC)cc1C3C (stereo unspecified)
inactive: [17] 21.7 µM | [1] 37.6 µM | [2] 9.91 µM | [3] 18.8 µM | [4] 19.8 µM | [5] 6.92 µM | [6] 14.8 µM | [7] > 28.4 µM | [8] 12.2 µM | [9] 14.7 µM | [10] 13.6 µM | [11] 5.69 µM | [12] 12.3 µM | [13] > 89.5 µM | [14] 7.52 µM | [15] 10.4 µM | [16] 35.7 µM

Cc1c(C(Cc2ccccc2N(C)C(=O)/C=C\C(=O)O)c2c[nH]c3ccccc23)c2ccccc2n1C (stereo unspecified)
inactive: [17] 18 µM | [1] 18.2 µM | [2] 20.6 µM | [3] 21.7 µM | [4] 13.2 µM | [5] 16.8 µM | [6] 16.2 µM | [7] 21.2 µM | [8] 14.9 µM | [9] 15.1 µM | [10] 16.5 µM | [11] 16.4 µM | [12] 14.2 µM | [13] 14.9 µM | [14] 16.6 µM | [15] 12.7 µM | [16] 18.1 µM

CC(C)(C)c1cc(CCC(=O)Nc2ccc(Cl)cc2)nc(S)n1
inactive: [17] > 100 µM | [1] > 100 µM | [2] > 100 µM | [3] > 100 µM | [4] > 100 µM | [5] > 100 µM | [6] > 100 µM | [7] > 100 µM | [8] > 100 µM | [10] > 100 µM | [11] > 100 µM | [12] > 100 µM | [13] > 100 µM | [14] > 100 µM | [15] > 100 µM | [16] > 100 µM

CN(c1ccccc1)c1cc2ccccc2nn1
inactive: [17] > 100 µM | [1] > 100 µM | [2] > 100 µM | [3] > 100 µM | [4] > 100 µM | [5] > 100 µM | [6] > 100 µM | [7] > 100 µM | [8] 43.2 µM | [9] > 100 µM | [10] 64.3 µM | [11] 81.8 µM | [12] > 100 µM | [13] 47.1 µM | [14] > 100 µM | [15] 56.1 µM | [16] > 100 µM

COc1ccc(/C=C2/C[N+](C)(C)C/C(=C/c3ccc(OC)cc3)C2=O)cc1
inactive: [17] 43.3 µM | [1] 23.9 µM | [2] 26.9 µM | [3] > 100 µM | [4] 31.9 µM | [5] 56 µM | [6] > 100 µM | [7] > 68.7 µM | [8] 23.4 µM | [9] 32.5 µM | [10] 66.7 µM | [11] 19.5 µM | [12] > 100 µM | [13] 18.5 µM | [14] 40 µM | [15] 21.9 µM | [16] 42.7 µM

NC(Cc1ccccc1)C(=O)OCN1C(=O)C2C3C=CC(C2C1=O)C1C2C(=O)N(COC(=O)C(N)Cc4ccccc4)C(=O)C2C31 (stereo unspecified)
inactive: [17] 43.1 µM | [1] 23.9 µM | [2] 17.4 µM | [3] 27.9 µM | [4] 20.2 µM | [5] 19.9 µM | [7] 35.5 µM | [8] 18.2 µM | [9] 23 µM | [10] 26.2 µM | [11] 17.3 µM | [12] 22.1 µM | [13] 22.8 µM | [14] 22.5 µM | [15] 20.5 µM | [16] 23.3 µM

[N-]=[N+]=NC1CC(n2cc(COCC(F)(F)F)c(=O)[nH]c2=O)OC1CO (stereo unspecified)
inactive: [17] > 100 µM | [1] > 100 µM | [2] > 100 µM | [3] > 100 µM | [4] > 100 µM | [5] > 100 µM | [6] > 100 µM | [7] > 100 µM | [8] > 100 µM | [10] > 100 µM | [11] > 100 µM | [12] > 100 µM | [13] > 100 µM | [14] > 100 µM | [15] > 100 µM | [16] > 100 µM

C=C1c2[nH]c3ccccc3c2CC(C(=O)O)N1C(O)c1ccc(S(=O)(=O)O)cc1 (stereo unspecified)
inactive: [17] > 100 µM | [2] > 100 µM | [3] > 100 µM | [4] > 100 µM | [5] > 100 µM | [6] > 100 µM | [7] > 100 µM | [8] > 100 µM | [9] > 100 µM | [10] 65.6 µM | [11] > 100 µM | [12] > 100 µM | [13] > 100 µM | [14] > 100 µM | [15] > 100 µM | [16] > 100 µM

COc1cccc2c1C(=O)C1(O)CCCCC21 (stereo unspecified)
inactive: [17] > 100 µM | [1] > 100 µM | [2] > 100 µM | [3] > 100 µM | [4] > 100 µM | [5] > 100 µM | [6] > 100 µM | [7] > 100 µM | [8] > 100 µM | [9] > 100 µM | [10] > 100 µM | [11] > 100 µM | [12] > 100 µM | [13] > 100 µM | [14] > 100 µM | [15] > 100 µM | [16] > 100 µM

Cc1ccccc1NC(=O)CC(=O)n1nc(-c2ccccc2)c(/N=N/c2ccc([N+](=O)[O-])cc2)c1-c1ccccc1
inactive: [17] 25.6 µM | [1] 28.1 µM | [2] 21.2 µM | [3] 16.7 µM | [4] 31.4 µM | [5] 21.3 µM | [6] 16 µM | [7] 32 µM | [8] 13 µM | [9] 14.4 µM | [10] 19.2 µM | [11] 14.1 µM | [12] 19.1 µM | [13] 28.4 µM | [14] 19.9 µM | [15] 24.9 µM | [16] 30.5 µM

CC1=C(C(=O)NCc2ccccc2)C(c2ccccc2C)C(C(=O)NCc2ccccc2)=C(C)N1
inactive: [17] 35.6 µM | [1] 31.7 µM | [2] 22.8 µM | [3] 91.2 µM | [4] 17.9 µM | [5] 33.1 µM | [6] 29.9 µM | [7] 35.9 µM | [8] 35.5 µM | [9] 19 µM | [10] > 43.8 µM | [11] 24.5 µM | [12] 23.7 µM | [13] 29.6 µM | [14] 24.6 µM | [15] 29.5 µM | [16] 38.8 µM

CC(C)c1ccc2c(c1)CCC1C(C)(C)[C@@H](O)CC[C@]21C (stereo partly specified)
inactive: [17] 52.4 µM | [1] > 100 µM | [2] 39 µM | [3] 68.7 µM | [4] 36.4 µM | [5] 29.8 µM | [6] 19.3 µM | [7] 18.8 µM | [8] 17.3 µM | [9] 18.5 µM | [10] 19.6 µM | [11] 22.4 µM | [12] 21.1 µM | [13] 27.9 µM | [14] 22.3 µM | [15] 47.3 µM

CC(C)C1COC(c2cccc(C3=N[C@@H](C(C)C)CO3)n2)=N1 (stereo partly specified)
inactive: [17] > 100 µM | [1] > 100 µM | [2] > 100 µM | [3] > 100 µM | [5] > 100 µM | [6] > 100 µM | [7] > 100 µM | [8] > 100 µM | [9] > 100 µM | [10] > 100 µM | [11] 59.3 µM | [12] > 100 µM | [13] > 100 µM | [14] > 100 µM | [15] > 100 µM | [16] > 100 µM
